Measured values taken from PubChem BioAssay (NCI).
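Growth conditions: 96-well plates. Treatment: test compound, 48 hours, 5 concentrations. Analysis: linear interpolation between bracketing concentrations; unreached endpoints set to highest concentration. Here, GI50 denotes the concentration required for 50% inhibition of growth. The concentration for full growth arrest is given as TGI.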

Legend:
Assay in all cases: NCI-60 cell line screen, 48 h
ACHN renal = tested on: ACHN renal
CAKI-1 renal = tested on: CAKI-1 renal
DU-145 prostate = tested on: DU-145 prostate
HL-60(TB) leukemia = tested on: HL-60(TB) leukemia
HS 578T breast = tested on: HS 578T breast
LOX IMVI melanoma = tested on: LOX IMVI melanoma
MCF7 breast = tested on: MCF7 breast
SK-MEL-28 melanoma = tested on: SK-MEL-28 melanoma
SK-OV-3 ovarian = tested on: SK-OV-3 ovarian
UACC-62 melanoma = tested on: UACC-62 melanoma

SMILES: N#CC(C(=O)O)C(c1c(Cl)cccc1Cl)C(C#N)C(=O)O (stereo not given)
- TGI (ACHN renal): > 100 µM
- TGI (CAKI-1 renal): > 100 µM
- TGI (DU-145 prostate): > 100 µM
- TGI (HL-60(TB) leukemia): > 100 µM
- TGI (HS 578T breast): > 100 µM
- TGI (LOX IMVI melanoma): > 100 µM
- TGI (MCF7 breast): > 100 µM
- TGI (SK-MEL-28 melanoma): > 100 µM
- TGI (SK-OV-3 ovarian): > 100 µM
- TGI (UACC-62 melanoma): > 100 µM

SMILES: S=C1SCN(C2CCCCCCCCCCC2)CN1C1CCCCCCCCCCC1
- TGI (ACHN renal): > 100 µM
- TGI (CAKI-1 renal): > 100 µM
- TGI (DU-145 prostate): > 100 µM
- TGI (HL-60(TB) leukemia): > 100 µM
- TGI (HS 578T breast): > 100 µM
- TGI (LOX IMVI melanoma): > 100 µM
- TGI (MCF7 breast): > 100 µM
- TGI (SK-MEL-28 melanoma): > 100 µM
- TGI (SK-OV-3 ovarian): > 100 µM
- TGI (UACC-62 melanoma): > 100 µM

SMILES: O=C(O)CNC(=O)C1NC(C(F)(F)F)(C(F)(F)F)OC1(C(F)(F)F)C(F)(F)F (stereo not given)
- TGI (ACHN renal): > 100 µM
- TGI (CAKI-1 renal): > 100 µM
- TGI (DU-145 prostate): > 100 µM
- TGI (HL-60(TB) leukemia): > 100 µM
- TGI (HS 578T breast): > 100 µM
- TGI (LOX IMVI melanoma): > 100 µM
- TGI (MCF7 breast): > 100 µM
- TGI (SK-MEL-28 melanoma): > 100 µM
- TGI (SK-OV-3 ovarian): > 100 µM
- TGI (UACC-62 melanoma): > 100 µM

SMILES: COc1cccc(NC(=O)c2ccc(NC3=C(Cl)C(=O)N(Cc4ccccc4)C3=O)cc2)c1
- GI50 (ACHN renal): 6.22 µM
- TGI (ACHN renal): 19 µM
- GI50 (CAKI-1 renal): 15.3 µM
- TGI (CAKI-1 renal): 30.9 µM
- GI50 (DU-145 prostate): 19 µM
- TGI (DU-145 prostate): 38.6 µM
- GI50 (HL-60(TB) leukemia): 11.9 µM
- TGI (HL-60(TB) leukemia): 29 µM
- GI50 (HS 578T breast): 11.1 µM
- TGI (HS 578T breast): 30.9 µM
- GI50 (LOX IMVI melanoma): 2.71 µM
- TGI (LOX IMVI melanoma): 9.11 µM
- GI50 (MCF7 breast): 3.9 µM
- TGI (MCF7 breast): 17.8 µM
- GI50 (SK-MEL-28 melanoma): 11.5 µM
- TGI (SK-MEL-28 melanoma): 28 µM
- GI50 (SK-OV-3 ovarian): 30.5 µM
- TGI (SK-OV-3 ovarian): 85.4 µM
- GI50 (UACC-62 melanoma): 15.4 µM
- TGI (UACC-62 melanoma): 28.8 µM

SMILES: O=C1CCC(N2C(=O)c3cccc(NCCOCCOCCNC(=O)c4cc5c(o4)C(=O)c4ccccc4C5=O)c3C2=O)C(=O)N1 (stereo not given)
- GI50 (ACHN renal): 2.3 µM
- TGI (ACHN renal): 6.62 µM
- GI50 (CAKI-1 renal): 2.91 µM
- TGI (CAKI-1 renal): 10.1 µM
- GI50 (DU-145 prostate): 1.82 µM
- TGI (DU-145 prostate): 3.25 µM
- GI50 (HL-60(TB) leukemia): 2.1 µM
- TGI (HL-60(TB) leukemia): 6.82 µM
- GI50 (HS 578T breast): 2.4 µM
- TGI (HS 578T breast): 7.76 µM
- GI50 (LOX IMVI melanoma): 1.1 µM
- TGI (LOX IMVI melanoma): 2.5 µM
- GI50 (MCF7 breast): 1.35 µM
- TGI (MCF7 breast): 3.54 µM
- GI50 (SK-MEL-28 melanoma): 1.92 µM
- TGI (SK-MEL-28 melanoma): 3.9 µM
- GI50 (SK-OV-3 ovarian): 3.09 µM
- TGI (SK-OV-3 ovarian): 7.78 µM
- GI50 (UACC-62 melanoma): 1.46 µM
- TGI (UACC-62 melanoma): 2.98 µM

SMILES: C[C@H](C(O)CC(=O)C(C)(C)O)[C@H]1CC[C@@]2(C)[C@@H]3CC[C@H]4C(C)(C)[C@@H](OC5OC(COC6OC(CO)C(O)C(O)C6O)C(O)C(O)C5O)CC[C@]4(C)C3=CC[C@]12C (stereo not given in full)
- TGI (ACHN renal): > 100 µM
- TGI (CAKI-1 renal): > 100 µM
- TGI (DU-145 prostate): > 100 µM
- TGI (HL-60(TB) leukemia): > 100 µM
- TGI (HS 578T breast): > 100 µM
- TGI (LOX IMVI melanoma): > 100 µM
- TGI (MCF7 breast): > 100 µM
- TGI (SK-MEL-28 melanoma): > 100 µM
- TGI (SK-OV-3 ovarian): > 100 µM
- TGI (UACC-62 melanoma): > 100 µM

SMILES: CC(C)Cc1ccc(C(C)/C=C2\CCC(CN3CCCCC3)C2=O)cc1 (stereo not given)
- TGI (ACHN renal): 19.9 µM
- TGI (CAKI-1 renal): 20.4 µM
- TGI (DU-145 prostate): 31 µM
- TGI (HL-60(TB) leukemia): 5 µM
- TGI (HS 578T breast): 45.6 µM
- TGI (LOX IMVI melanoma): 3.99 µM
- TGI (MCF7 breast): 4.08 µM
- TGI (SK-MEL-28 melanoma): 11 µM
- TGI (SK-OV-3 ovarian): 34.9 µM
- TGI (UACC-62 melanoma): 24.2 µM

SMILES: CCN(CC)CCC(=O)N1C/C(=C/c2ccccc2)C(=O)/C(=C\c2ccccc2)C1
- TGI (ACHN renal): 7.63 µM
- TGI (CAKI-1 renal): 5.08 µM
- TGI (DU-145 prostate): 12.5 µM
- TGI (HL-60(TB) leukemia): 1.62 µM
- TGI (HS 578T breast): 2.21 µM
- TGI (LOX IMVI melanoma): 0.949 µM
- TGI (MCF7 breast): 1.69 µM
- TGI (SK-MEL-28 melanoma): 4.16 µM
- TGI (SK-OV-3 ovarian): 20.9 µM
- TGI (UACC-62 melanoma): 4.92 µM

SMILES: COc1ccc(-c2cc(-c3ccc(Cl)cc3)nc(SCCCCCCC(=O)NO)n2)cc1
- GI50 (ACHN renal): 1.11 µM
- TGI (ACHN renal): 2.67 µM
- GI50 (CAKI-1 renal): 1.32 µM
- TGI (CAKI-1 renal): 7.47 µM
- GI50 (DU-145 prostate): 1.76 µM
- TGI (DU-145 prostate): 15.4 µM
- GI50 (HL-60(TB) leukemia): 1.19 µM
- TGI (HL-60(TB) leukemia): 2.8 µM
- GI50 (HS 578T breast): 1.81 µM
- TGI (HS 578T breast): > 50 µM
- GI50 (LOX IMVI melanoma): 1.22 µM
- TGI (LOX IMVI melanoma): 3.05 µM
- GI50 (MCF7 breast): 1.73 µM
- TGI (MCF7 breast): > 50 µM
- GI50 (SK-MEL-28 melanoma): 2.43 µM
- TGI (SK-MEL-28 melanoma): 11.7 µM
- GI50 (SK-OV-3 ovarian): 1.62 µM
- TGI (SK-OV-3 ovarian): 8.54 µM
- GI50 (UACC-62 melanoma): 1.13 µM
- TGI (UACC-62 melanoma): 3.51 µM

SMILES: COc1ccc2c(c1)c(-c1ccc(-c3cn(C)c4ccc(OC)cc34)o1)cn2C
- GI50 (ACHN renal): 3.74 µM
- TGI (ACHN renal): 18.6 µM
- GI50 (CAKI-1 renal): 17.1 µM
- TGI (CAKI-1 renal): > 100 µM
- GI50 (DU-145 prostate): > 100 µM
- TGI (DU-145 prostate): > 100 µM
- GI50 (HL-60(TB) leukemia): 1.98 µM
- TGI (HL-60(TB) leukemia): 5.2 µM
- GI50 (HS 578T breast): 4.2 µM
- TGI (HS 578T breast): 20.1 µM
- GI50 (LOX IMVI melanoma): 10.4 µM
- TGI (LOX IMVI melanoma): > 100 µM
- GI50 (MCF7 breast): 17.3 µM
- TGI (MCF7 breast): > 100 µM
- GI50 (SK-MEL-28 melanoma): 14 µM
- TGI (SK-MEL-28 melanoma): 80.1 µM
- GI50 (SK-OV-3 ovarian): > 100 µM
- TGI (SK-OV-3 ovarian): > 100 µM
- GI50 (UACC-62 melanoma): 3.81 µM
- TGI (UACC-62 melanoma): 15.9 µM

SMILES: N#Cc1ccc(NC(=O)Nc2nc3ccc(OC(F)(F)F)cc3s2)cc1
- GI50 (ACHN renal): 0.732 µM
- TGI (ACHN renal): 7.05 µM
- GI50 (CAKI-1 renal): 1.59 µM
- TGI (CAKI-1 renal): 9.12 µM
- GI50 (DU-145 prostate): 2.7 µM
- TGI (DU-145 prostate): 13.6 µM
- GI50 (HL-60(TB) leukemia): 2.44 µM
- TGI (HL-60(TB) leukemia): 21.3 µM
- GI50 (HS 578T breast): 1.78 µM
- TGI (HS 578T breast): 7.65 µM
- GI50 (LOX IMVI melanoma): 1.47 µM
- TGI (LOX IMVI melanoma): 4.67 µM
- GI50 (MCF7 breast): 1 µM
- TGI (MCF7 breast): 11.6 µM
- GI50 (SK-MEL-28 melanoma): 2.31 µM
- TGI (SK-MEL-28 melanoma): 12.3 µM
- GI50 (SK-OV-3 ovarian): 2.65 µM
- TGI (SK-OV-3 ovarian): 11.1 µM
- GI50 (UACC-62 melanoma): 0.737 µM
- TGI (UACC-62 melanoma): 3.87 µM
